Data from patent US20240067632A1, “WEE1 Degrading Compounds and Uses Thereof” (Bristol-Myers Squibb Company, priority 2022, published 2024).
Where two headings read alike, the source gives them in different places.

Legend:
MKN45 cells = assay: MKN45 cell proliferation assay (Cell-Titer-Glo, 120 h); format: cell-based; settings: for EC50: Homo sapiens, MKN-45, 120 h, Cell-Titer-Glo, read-out: MKN45 Cell Prolif. 120 hr (EC50); for MKN45 Cell Prolif. 120 hr (Ymin-Obs): minimal percent of DMSO control observed in the concentrations tested
Outline: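 Cells seeded at 400/well onto pre-printed 10-point half-log dilutions (top 1 or 10 uM, 0.1% DMSO final), in triplicate, and grown 120 h at 37 C. Viability by Cell-Titer-Glo luminescence, blank-subtracted and normalised to DMSO; EC50 from four-parameter logistic fit, with observed minimal % of control recorded as Ymin-obs.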

WEE1 = biological target: T1, WEE1 (Homo sapiens, UniProt P30291+Q96SW2); assay: WEE1-ePL degradation assay (LentiX-WEE1-ePL-GSPT1-ND cells, InCELL Hunter luminescence, 4 h); format: cell-based; settings: 293T-LentiX WEE1-ePL cells; for DC50: read-out: 293T-LentiX WEE1-ePL Degradation 4 hr (EC50)
T1 construct: C-terminal ePL-tagged (DiscoverX, Fremont, CA) full-length WEE1 expression construct; expressed in transfected cells; host or cells: LentiX-HEK293T (Invitrogen), lentiviral transduction; co-expressing GSPT1-GN (G576N, lacking the first 158 amino acids)
Outline: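 Degradation EC50 was fitted by a four-parameter logistic model, with the upper limit taken from DMSO wells. Luminescence was read with InCELL Hunter reagent after 30 min at room temperature, following a 4 h, 37° C exposure of 2500 cells/well. Cells were LentiX-HEK293T carrying ePL-tagged full-length WEE1, dosed in 10 points (3-fold) from 1 or 10 uM.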

[1] = lower limit of the fit (0 = luciferase inhibitor, Ymax = DMSO control)
[2] = lower limit of the fit (Ymin=0 luciferase inhibitor, Ymax DMSO control)

SMILES | EC50 (MKN45 cells; growth inhibition) | 293T-LentiX WEE1-ePL Degradation 4 hr (Ymin) (WEE1; [1]) | DC50 (WEE1) | EC50 (MKN45 cells) | 293T-LentiX WEE1-ePL Degradation 4 hr (Ymin) (WEE1; [2]) | MKN45 Cell Prolif. 120 hr (Ymin-Obs) (MKN45 cells)
CO[C@H]1CC[C@H](c2ccc3cc(CN4CC[C@H](Oc5ccc6c(c5)CN(C5CCC(=O)NC5=O)C6=O)C4)ccc3n2)C1 (stereo partly drawn) [3-(5-{[(3S)-1-({2-[(1S,3S)-3-methoxycyclopentyl]quinolin-6-yl}methyl)pyrrolidin-3-yl]oxy}-1-oxo-2,3-dihydro-1H-isoindol-2-yl)piperidine-2,6-dione] | 4.8 nM | 32.5 | 6.19 nM | – | – | 8.927
O=C1CCC(N2Cc3cc(O[C@H]4CCN(Cc5ccc6nc(N7C[C@@H]8C[C@H]7CO8)ncc6c5)C4)ccc3C2=O)C(=O)N1 (stereo partly drawn) [3-(5-{[(3S)-1-({2-[(1S,4S)-2-oxa-5-azabicyclo[2.2.1]heptan-5-yl]quinazolin-6-yl}methyl)pyrrolidin-3-yl]oxy}-1-oxo-2,3-dihydro-1H-isoindol-2-yl)piperidine-2,6-dione] | 9.86 nM | 34.5 | 12.3 nM | – | – | 9.576
O=C1CCC(N2Cc3cc(O[C@H]4CCN(Cc5ccc6nc(N7C[C@@H]8C[C@H]7CO8)ccc6c5)C4)ccc3C2=O)C(=O)N1 (stereo partly drawn) [3-(5-{[(3S)-1-({2-[(1S,4S)-2-oxa-5-azabicyclo[2.2.1]heptan-5-yl]quinolin-6-yl}methyl)pyrrolidin-3-yl]oxy}-1-oxo-2,3-dihydro-1H-isoindol-2-yl)piperidine-2,6-dione] | 5.54 nM | 34 | 2.98 nM | – | – | 8.09
C[C@@H]1CC(c2ccc3cc(CN4CC[C@H](Oc5ccc6c(c5)CN(C5CCC(=O)NC5=O)C6=O)C4)ccc3n2)C[C@@H](C)O1 (stereo partly drawn) [3-(5-{[(3S)-1-({2-[(2R,6R)-2,6-dimethyloxan-4-yl]quinolin-6-yl}methyl)pyrrolidin-3-yl]oxy}-1-oxo-2,3-dihydro-1H-isoindol-2-yl)piperidine-2,6-dione] | – | – | 5.2 nM | 5.09 nM | 25.33 | 10.09
C[C@@H]1CC(c2ccc3cc(CN4CC[C@H](Oc5ccc6c(c5)CN(C5CCC(=O)NC5=O)C6=O)C4)ccc3n2)C[C@H](C)O1 (stereo partly drawn) [3-(5-{[(3S)-1-({2-[(2R,6S)-2,6-dimethyloxan-4-yl]quinolin-6-yl}methyl)pyrrolidin-3-yl]oxy}-1-oxo-2,3-dihydro-1H-isoindol-2-yl)piperidine-2,6-dione] | 10.4 nM | 30.42 | 11.7 nM | – | – | 14.48
O=C1CCC(N2Cc3cc(O[C@H]4CCN(Cc5ccc6nc(N7CC[C@@H](O)C7)ccc6c5)C4)ccc3C2=O)C(=O)N1 (stereo partly drawn) [3-(5-{[(3S)-1-({2-[(3R)-3-hydroxypyrrolidin-1-yl]quinolin-6-yl}methyl)pyrrolidin-3-yl]oxy}-1-oxo-2,3-dihydro-1H-isoindol-2-yl)piperidine-2,6-dione] | 20.9 nM | 36 | 17.5 nM | – | – | 11.85
CO[C@@H]1CCCN(c2ccc3cc(CN4CC[C@H](Oc5ccc6c(c5)CN(C5CCC(=O)NC5=O)C6=O)C4)ccc3n2)C1 (stereo partly drawn) [3-(5-{[(3S)-1-({2-[(3R)-3-methoxypiperidin-1-yl]quinolin-6-yl}methyl)pyrrolidin-3-yl]oxy}-1-oxo-2,3-dihydro-1H-isoindol-2-yl)piperidine-2,6-dione] | 3.91 nM | 34 | 4.32 nM | – | – | 6.79
CO[C@@H]1CCN(c2ccc3cc(CN4CC[C@H](Oc5ccc6c(c5)CN(C5CCC(=O)NC5=O)C6=O)C4)ccc3n2)C1 (stereo partly drawn) [3-(5-{[(3S)-1-({2-[(3R)-3-methoxypyrrolidin-1-yl]quinolin-6-yl}methyl)pyrrolidin-3-yl]oxy}-1-oxo-2,3-dihydro-1H-isoindol-2-yl)piperidine-2,6-dione] | 3.67 nM | 37 | 2.46 nM | – | – | 8.99
O=C1CCC(N2Cc3cc(O[C@H]4CCN(Cc5ccc6nc([C@H]7CCCOC7)ncc6c5)C4)ccc3C2=O)C(=O)N1 (stereo partly drawn) [3-(5-{[(3S)-1-({2-[(3R)-oxan-3-yl]quinazolin-6-yl}methyl)pyrrolidin-3-yl]oxy}-1-oxo-2,3-dihydro-1H-isoindol-2-yl)piperidine-2,6-dione] | 8.8 nM | 28.5 | 16 nM | – | – | 6.66
O=C1CCC(N2Cc3cc(O[C@H]4CCN(Cc5ccc6nc([C@H]7CCCOC7)ccc6c5)C4)ccc3C2=O)C(=O)N1 (stereo partly drawn) [3-(5-{[(3S)-1-({2-[(3R)-oxan-3-yl]quinolin-6-yl}methyl)pyrrolidin-3-yl]oxy}-1-oxo-2,3-dihydro-1H-isoindol-2-yl)piperidine-2,6-dione] | 5.28 nM | 32.33 | 3.33 nM | – | – | 12.5
O=C1CCC(N2Cc3cc(O[C@H]4CCN(Cc5ccc6nc(N7CC[C@H](O)C7)ccc6c5)C4)ccc3C2=O)C(=O)N1 (stereo partly drawn) [3-(5-{[(3S)-1-({2-[(3S)-3-hydroxypyrrolidin-1-yl]quinolin-6-yl}methyl)pyrrolidin-3-yl]oxy}-1-oxo-2,3-dihydro-1H-isoindol-2-yl)piperidine-2,6-dione] | 11.4 nM | 36.5 | 10.4 nM | – | – | 7.1
CO[C@H]1CCCN(c2ccc3cc(CN4CC[C@H](Oc5ccc6c(c5)CN(C5CCC(=O)NC5=O)C6=O)C4)ccc3n2)C1 (stereo partly drawn) [3-(5-{[(3S)-1-({2-[(3S)-3-methoxypiperidin-1-yl]quinolin-6-yl}methyl)pyrrolidin-3-yl]oxy}-1-oxo-2,3-dihydro-1H-isoindol-2-yl)piperidine-2,6-dione] | 5.29 nM | 34 | 5.83 nM | – | – | 10.12

More lines, main results first:

EC50 (MKN45 cells; growth inhibition) | 293T-LentiX WEE1-ePL Degradation 4 hr (Ymin) (WEE1; [1]) | DC50 (WEE1) | EC50 (MKN45 cells) | 293T-LentiX WEE1-ePL Degradation 4 hr (Ymin) (WEE1; [2]) | SMILES | MKN45 Cell Prolif. 120 hr (Ymin-Obs) (MKN45 cells)
10.9 nM | 29.54 | 10.5 nM | – | – | C[C@@H]1CC(c2ccc3cc(CN4CC[C@H](Oc5ccc6c(c5)CN(C5CCC(=O)NC5=O)C6=O)C4)ccc3n2)CCO1 (stereo partly drawn) [3-(5-{[(3S)-1-({2-[(2R)-2-methyloxan-4-yl]quinolin-6-yl}methyl)pyrrolidin-3-yl]oxy}-1-oxo-2,3-dihydro-1H-isoindol-2-yl)piperidine-2,6-dione] | 14.5
4.39 nM | 28.55 | 2.97 nM | – | – | C[C@H]1CC(c2ccc3cc(CN4CC[C@H](Oc5ccc6c(c5)CN(C5CCC(=O)NC5=O)C6=O)C4)ccc3n2)CCO1 (stereo partly drawn) [3-(5-{[(3S)-1-({2-[(2S)-2-methyloxan-4-yl]quinolin-6-yl}methyl)pyrrolidin-3-yl]oxy}-1-oxo-2,3-dihydro-1H-isoindol-2-yl)piperidine-2,6-dione] | 10.88
– | – | 225 nM | 48.4 nM | 37.05 | CN1CC[C@@H](c2ncc3cc(CN4CC[C@H](Oc5ccc6c(c5)CN(C5CCC(=O)NC5=O)C6=O)C4)ccc3n2)C1 (stereo partly drawn) [3-(5-{[(3S)-1-({2-[(3R)-1-methylpyrrolidin-3-yl]quinazolin-6-yl}methyl)pyrrolidin-3-yl]oxy}-1-oxo-2,3-dihydro-1H-isoindol-2-yl)piperidine-2,6-dione] | 13.19
90.5 nM | 37 | 67.4 nM | – | – | CN1CC[C@@H](c2ccc3cc(CN4CC[C@H](Oc5ccc6c(c5)CN(C5CCC(=O)NC5=O)C6=O)C4)ccc3n2)C1 (stereo partly drawn) [3-(5-{[(3S)-1-({2-[(3R)-1-methylpyrrolidin-3-yl]quinolin-6-yl}methyl)pyrrolidin-3-yl]oxy}-1-oxo-2,3-dihydro-1H-isoindol-2-yl)piperidine-2,6-dione] | 11.69
– | – | 248 nM | 84.1 nM | 36.52 | CN1CC[C@H](c2ncc3cc(CN4CC[C@H](Oc5ccc6c(c5)CN(C5CCC(=O)NC5=O)C6=O)C4)ccc3n2)C1 (stereo partly drawn) [3-(5-{[(3S)-1-({2-[(3S)-1-methylpyrrolidin-3-yl]quinazolin-6-yl}methyl)pyrrolidin-3-yl]oxy}-1-oxo-2,3-dihydro-1H-isoindol-2-yl)piperidine-2,6-dione] | 17.35
59.7 nM | 37 | 67.5 nM | – | – | CN1CC[C@H](c2ccc3cc(CN4CC[C@H](Oc5ccc6c(c5)CN(C5CCC(=O)NC5=O)C6=O)C4)ccc3n2)C1 (stereo partly drawn) [3-(5-{[(3S)-1-({2-[(3S)-1-methylpyrrolidin-3-yl]quinolin-6-yl}methyl)pyrrolidin-3-yl]oxy}-1-oxo-2,3-dihydro-1H-isoindol-2-yl)piperidine-2,6-dione] | 12.73
